Values joined by “and” are separate entries in the source; they are usually repeats but may differ in a detail not shown here. Equal entries are not always repeated.
Assay: molar heat capacity at constant pressure
Conditions: 101.33 kPa, Small sample (50 mg) DSC

O[C@@H]1CCCC[C@@H]1O [cis-1,2-cyclohexanediol]
Conditions	molar heat capacity at constant pressure
174.3 K, Crystal 2	89.6 J/K/mol
185.2 K, Crystal 2	92.7 J/K/mol
193.1 K, Crystal 2	100 J/K/mol
202.2 K, Crystal 2	101.1 J/K/mol
215.9 K, Crystal 2	111 J/K/mol
230.1 K, Crystal 2	121.1 J/K/mol
248.1 K, Crystal 2	127.3 J/K/mol
259.2 K, Crystal 2	134.9 J/K/mol
266.2 K, Crystal 2	138.2 J/K/mol
273.1 K, Crystal 2	141.4 J/K/mol
278.2 K, Crystal 2	148.8 J/K/mol
283 K, Crystal 2	151.1 J/K/mol
288.2 K, Crystal 2	152 J/K/mol and 154.2 J/K/mol
293.2 K, Crystal 2	157.8 J/K/mol and 157.6 J/K/mol
298.1 K, Crystal 2	160.4 J/K/mol
300.2 K, Crystal 2	162 J/K/mol and 163.9 J/K/mol
308.2 K, Crystal 2	168 J/K/mol and 166.4 J/K/mol
316 K, Crystal 2	171.9 J/K/mol
323.3 K, Crystal 2	175 J/K/mol
328.2 K, Crystal 2	177.2 J/K/mol
333.2 K, Crystal 2	180.8 J/K/mol
339.2 K, Crystal 2	184.3 J/K/mol
344.1 K, Crystal 2	186.2 J/K/mol
346.3 K, Crystal 2	190 J/K/mol
348.1 K, Crystal 2	191.8 J/K/mol
350.2 K, Crystal 2	192.5 J/K/mol
363.1 K, Crystal 1	279.6 J/K/mol
366.2 K, Crystal 1	284.9 J/K/mol
367.2 K, Crystal 1	290.4 J/K/mol
368.2 K, Crystal 1	292.8 J/K/mol
378.1 K, Liquid	297.9 J/K/mol
383.2 K, Liquid	300 J/K/mol
385.2 K, Liquid	302.5 J/K/mol
388 K, Liquid	304.1 J/K/mol
393.2 K, Liquid	305 J/K/mol
397.3 K, Liquid	306.3 J/K/mol
403.1 K, Liquid	310.5 J/K/mol
413.2 K, Liquid	312.8 J/K/mol

O[C@H]1CC[C@H](O)CC1 [trans-1,4-cyclohexanediol]
Conditions	molar heat capacity at constant pressure
176.5 K, Crystal	100.6 J/K/mol
183.2 K, Crystal	105.6 J/K/mol
189.1 K, Crystal	109.5 J/K/mol
198.9 K, Crystal	115.4 J/K/mol
206.9 K, Crystal	115.6 J/K/mol
215 K, Crystal	121 J/K/mol
222.2 K, Crystal	124.6 J/K/mol
230.2 K, Crystal	127.3 J/K/mol
238.3 K, Crystal	135.4 J/K/mol
258.3 K, Crystal	142.2 J/K/mol
273.2 K, Crystal	145.6 J/K/mol
278.1 K, Crystal	148.8 J/K/mol and 150.6 J/K/mol and 149 J/K/mol
283.2 K, Crystal	151 J/K/mol and 151.1 J/K/mol
288.2 K, Crystal	154 J/K/mol
293.2 K, Crystal	156.4 J/K/mol and 157.4 J/K/mol
303.2 K, Crystal	167 J/K/mol
308.1 K, Crystal	168.1 J/K/mol and 169.9 J/K/mol
313.2 K, Crystal	173 J/K/mol
323.3 K, Crystal	174 J/K/mol
333.1 K, Crystal	177.4 J/K/mol
343.2 K, Crystal	181.4 J/K/mol and 183.9 J/K/mol
353.1 K, Crystal	187.1 J/K/mol
363.2 K, Crystal	190.5 J/K/mol
373.2 K, Crystal	198 J/K/mol
393.1 K, Liquid	310.7 J/K/mol
403.2 K, Liquid	313 J/K/mol
